Laboratory results published in ChEMBL document CHEMBL5576070, “The recent discovery of a promising pharmacological scaffold derived from carvacrol: A review” (Bioorg Med Chem Lett, 2024).
≈ marks a conversion by molar mass, not a printed value.

How the values were obtained:
[1] = system: Pseudomonas aeruginosa; experiment: Antibacterial activity against Pseudomonas aeruginosa ATCC 27853 assessed as bacterial growth inhibition measured after 18 hrs by CLSI protocol based two-fold serial microdilution method; assay type: functional
[2] = system: Pseudomonas aeruginosa; experiment: Bactericidal activity against Pseudomonas aeruginosa ATCC 27853 assessed as reduction in bacterial viability; assay type: functional
[3] = system: Staphylococcus aureus; experiment: Synergistic antibacterial activity against Staphylococcus aureus ATCC 29213 assessed as fractional inhibitory concentration incubated for 24 hrs in the presence of ampicillin by checkerboard assay; assay type: functional
[4] = system: Mus musculus; experiment: Antinociceptive activity in Swiss mouse assessed as reduction in pain like behavior at 0.003 mg/kg, ip and measured after 1.5 hrs by cold plate test; assay type: functional; parameters: scale not given: the % may be the effect or the level left
[5] = system: Staphylococcus epidermidis; experiment: Antibacterial activity against Staphylococcus epidermidis ATCC 12228 assessed as reduction in bacterial growth incubated for 18 hrs by two fold serial microdilution method; assay type: functional
[6] = system: Pseudomonas aeruginosa; experiment: Antibacterial activity against Pseudomonas aeruginosa ATCC 15442 assessed as bacterial growth inhibition measured after 18 hrs by CLSI protocol based two-fold serial microdilution method; assay type: functional
[7] = system: Pseudomonas fluorescens; experiment: Antibacterial activity against Pseudomonas fluorescens assessed as zone of inhibition; assay type: functional
[8] = system: Pseudomonas fluorescens; experiment: Antibacterial activity against Pseudomonas fluorescens assessed as reduction in bacterial growth; assay type: functional
[9] = system: Escherichia coli; experiment: Antibacterial activity against Escherichia coli ATCC 25922 assessed as reduction in bacterial growth incubated for 18 to 20 hrs by broth microdilution assay; assay type: functional; conditions: time 18-20 hrs
[10] = system: Staphylococcus aureus; experiment: Antibacterial activity against Staphylococcus aureus ATCC 29213 assessed as bacterial growth inhibition measured after 18 hrs by CLSI protocol based two-fold serial microdilution method; assay type: functional
[11] = system: Bacillus subtilis; experiment: Antibacterial activity against Bacillus subtilis assessed as reduction in bacterial growth incubated for 20 hrs by broth microdilution assay; assay type: functional
[12] = system: HCT-15; experiment: Growth inhibition of human HCT-15 cells incubated for 48 hrs by SRB assay; assay type: functional
[13] = system: MIA PaCa-2; experiment: Growth inhibition of human MIA PaCa-2 cells incubated for 48 hrs by SRB assay; assay type: functional
[14] = system: Streptococcus pneumoniae; experiment: Antibacterial activity against Streptococcus pneumoniae assessed as reduction in bacterial cell growth inhibition by broth microdilution method; assay type: functional, organism-based
[15] = system: Enterococcus faecalis; experiment: Antibacterial activity against Enterococcus faecalis ATCC 10541 assessed as reduction in bacterial growth incubated for 24 hrs by broth microdilution method; assay type: functional, organism-based; conditions: ATCC 10541, 24 h

Compound: Cc1cc(Cl)c(C(C)C)cc1O
- MIC [1]: 3.44 µg/mL (≈ 18.6 µM)
- MBC [2]: 6.87 µg/mL (≈ 37.2 µM)

Compound: Cc1cc(S(=O)(=O)Nc2ccc(F)cc2)c(C(C)C)cc1O
- FIC [3]: 0.5

Compound: Cc1c(O)cc(C(C)C)cc1S(=O)(=O)N1CCOCC1
- Activity [4]: 62%

Compound: COc1cc(C(C)C)ccc1C
- MIC [5]: 0.06 µM (≈ 0.00985 µg/mL)
- MIC [6]: 0.49 µM (≈ 0.0805 µg/mL)
- inhibition zone (IZ) [7]: 15 mm
- MIC [8]: 250 µg/mL (≈ 1520 µM)
- MIC [9]: 250 µg/mL (≈ 1520 µM)
- MIC [10]: 250 µg/mL (≈ 1520 µM)
- MIC [11]: 250 µg/mL (≈ 1520 µM)

Compound: COc1cccc2c1C(=O)c1c(O)c3c(c(O)c1C2=O)C[C@@](O)(C(=O)CO)C[C@@H]3O[C@H]1C[C@H](N)[C@H](O)[C@H](C)O1.Cl [DOXORUBICIN HYDROCHLORIDE]
- GI50 [12]: 80 µg/mL
- GI50 [13]: 80 µg/mL

Compound: Cc1ccc(C(C)C)cc1OCc1cn(-c2ccc(C(=O)O)cc2)nn1
- IC50 [14]: 15 µg/mL (≈ 42.7 µM)
- IC50 [15]: 15 µg/mL (≈ 42.7 µM)
